Entries after “also recorded” stand apart in the source; their conditions may differ.
Tests used:
Bleo-exposed rats [1] = assay: Arterial blood gas analysis in rat model of bleomycin lung injury; conditions: intra-stellate RTX at day 3 after Bleo; day 7; vs. Bleo+Veh
Procedure: (§1) Rat Model of Lung Injury. Rats were randomized into three groups and evaluated at 1-week post-instillation as follows: sham rats, bleomycin (Bleo)-exposed rats with saline (epidural or intra-stellate injection), and Bleo-exposed rats with RTX (epidural or intra-stellate injection). Bleo (2.5 mg/kg, —0.15 mL) was instilled intra-tracheally to the lungs under 3% isoflurane anesthesia. Sham control rats underwent intra-tracheal instillation of saline. Animals were treated with RTX or vehicle (Veh; phosphate buffered saline) by either the epidural T1-T4 DRGs route (6 μg/ml, 10 μl/per ganglia) or intra-stellate ganglia administration (50μg/ml, 5 μl/per side) 3 days following Bleo delivery (FIG. 1A-B).
Intra-stellate Injection of RTX Rats were anesthetized using 2%-3% isoflurane:oxygen mixture. […] The skin from the rostral end of the sternum to the level of third rib was incised. Portions of the superficial and deep pectoral muscles and the first intercostal muscles were cut and dissected. To localize the left or right stellate ganglion, the left or right precava vein were separated with a hooked glass or steel rod laterally away from the brachiocephalic artery to expose the internal thoracic artery and the costocervical artery, which are descending branches of the right subclavian artery. Stellate ganglia and ansa subclavia are located medially to the origins of the internal thoracic and costocervical arteries. Then, RTX (5 μl, 50 mg/ml) was injected into the ganglia with a 5-μl Hamilton syringe (Microliter #95, Hamilton, Reno, Nev., USA.) over 30 s bilaterally. An image of this procedure is shown in FIG. 2A-B. Following these maneuvers, the thorax between the first and second intercostal spaces was closed with continuous 4-0 Dexon II coated braided absorbable polyglycolic acid suture and the skin was closed with 3-0 polypropylene suture and the chest evacuated. […]
(§2) Statistics. Statistical evaluation was analyzed using GraphPad Prism (GraphPad Software, San Diego, Calif. Version 8). Differences between treatments were determined using a Mixedeffects model for repeated-measures ANOVA. […]

Bleo-exposed rats [2] = assay: Body weight and organ weights post-mortem in rat model of bleomycin lung injury
Procedure: as §1
Intra-stellate Injection of RTX Rats were anesthetized using 2%-3% isoflurane:oxygen mixture. […] The skin from the rostral end of the sternum to the level of third rib was incised. Portions of the superficial and deep pectoral muscles and the first intercostal muscles were cut and dissected. To localize the left or right stellate ganglion, the left or right precava vein were separated with a hooked glass or steel rod laterally away from the brachiocephalic artery to expose the internal thoracic artery and the costocervical artery, which are descending branches of the right subclavian artery. Stellate ganglia and ansa subclavia are located medially to the origins of the internal thoracic and costocervical arteries. Then, RTX (5 μl, 50 mg/ml) was injected into the ganglia with a 5-μl Hamilton syringe (Microliter #95, Hamilton, Reno, Nev., USA.) over 30 s bilaterally. […]
as §2

Bleo-exposed rats [3] = assay: Lung plasma extravasation (Evans Blue) in rat model of bleomycin lung injury; conditions: day 7
Procedure: as §1
Epidural Application of RTX. The upper thoracic spinal afferents were ablated by epidural application of RTX. […] Briefly, rats were anesthetized using 2%-3% isoflurane:oxygen mixture. Rats were placed in the prone position and a small midline incision was made in the region of the T13-L1 thoracic vertebrae. Following dissection of the superficial muscles, two small holes (approximately 2 mm×2 mm) were made in the left and right sides of T13 vertebrae. A polyethylene catheter (PE-10) was inserted into the subarachnoid space via one hole and gently advanced about 4 cm approximating the T1 level. The upper thoracic sympathetic afferent ganglia were ablated by injecting resiniferatoxin (RTX; Sigma Aldrich), an ultra-potent agonist of the TRPV1 receptor into the subarachnoid space via the catheter. RTX (1 mg; Sigma Aldrich) was dissolved in a 1:1:8 mixture of ethanol, Tween 80 (Sigma-Aldrich), and isotonic saline. The first injection of RTX (6 μg/ml, 10 ul) was made at a very slow speed (˜1 minute) to minimize the diffusion of the drug. The catheter was then pulled back to T2, T3 and T4, respectively to perform serial injections (10 μl/each) at each segment. The catheter was withdrawn and the same injections were repeated on the other side. Silicone gel was used to seal the hole in the T13 vertebra. […]
Lung Plasma Extravasation, Tissue Extraction, and Quantification of Evans Blue. […]

Bleo-exposed rats [4] = assay: Plasma cytokine ELISA in rat model of bleomycin lung injury; format: in vivo; conditions: epidural RTX at day 3 after Bleo; day 7
Procedure: Rat Model of Lung Injury.
Epidural Application of RTX.
Cytokine Assays. […] Organ weights were evaluated post-mortem.

Bleo-exposed rats [5] = assay: Lung tissue cytokine ELISA in rat model of bleomycin lung injury; conditions: day 7
Procedure: as §1
Epidural Application of RTX. The upper thoracic spinal afferents were ablated by epidural application of RTX. […] Briefly, rats were anesthetized using 2%-3% isoflurane:oxygen mixture. Rats were placed in the prone position and a small midline incision was made in the region of the T13-L1 thoracic vertebrae. Following dissection of the superficial muscles, two small holes (approximately 2 mm×2 mm) were made in the left and right sides of T13 vertebrae. A polyethylene catheter (PE-10) was inserted into the subarachnoid space via one hole and gently advanced about 4 cm approximating the T1 level. The upper thoracic sympathetic afferent ganglia were ablated by injecting resiniferatoxin (RTX; Sigma Aldrich), an ultra-potent agonist of the TRPV1 receptor into the subarachnoid space via the catheter. RTX (1 mg; Sigma Aldrich) was dissolved in a 1:1:8 mixture of ethanol, Tween 80 (Sigma-Aldrich), and isotonic saline. The first injection of RTX (6 μg/ml, 10 ul) was made at a very slow speed (˜1 minute) to minimize the diffusion of the drug. The catheter was then pulled back to T2, T3 and T4, respectively to perform serial injections (10 μl/each) at each segment. The catheter was withdrawn and the same injections were repeated on the other side. Silicone gel was used to seal the hole in the T13 vertebra. The skin overlying the muscle were closed with a 3-0 polypropylene simple interrupted suture, and betadine was applied to the wound. For post-procedure pain management, buprenorphine (0.05 mg/kg) was subcutaneously injected immediately after surgery and twice daily for 2 days.
Intra-stellate Injection of RTX Rats were anesthetized using 2%-3% isoflurane:oxygen mixture. […] The skin from the rostral end of the sternum to the level of third rib was incised. Portions of the superficial and deep pectoral muscles and the first intercostal muscles were cut and dissected. To localize the left or right stellate ganglion, the left or right precava vein were separated with a hooked glass or steel rod laterally away from the brachiocephalic artery to expose the internal thoracic artery and the costocervical artery, which are descending branches of the right subclavian artery. Stellate ganglia and ansa subclavia are located medially to the origins of the internal thoracic and costocervical arteries. Then, RTX (5 μl, 50 mg/ml) was injected into the ganglia with a 5-μl Hamilton syringe (Microliter #95, Hamilton, Reno, Nev., USA.) over 30 s bilaterally. […] Betadine was applied to the wound and the rats were allowed to recover from the anesthesia. […]
Cytokine Assays. Lung and plasma cytokines were measured with R&D cytokine ELISA assays (Minneapolis, Minn., USA) according to the manufacturer's instructions.

[6] = intra-stellate RTX at day 3 after Bleo, day 7, vs. Bleo+Veh
[7] = epidural RTX at day 3 after Bleo, vs. Bleo
[8] = stellate RTX at day 3 after Bleo, vs. Bleo+Veh

Q: `C=C(C)[C@]12C[C@@H](C)[C@@]34O[C@](Cc5ccccc5)(O[C@@H]1[C@@H]3C=C(COC(=O)Cc1ccc(O)c(OC)c1)C[C@]1(O)C(=O)C(C)=C[C@@H]41)O2` [RTX, resiniferatoxin] was tested. Which “Arterial pCO2 (elevated by Bleo)” value (Bleo-exposed rats [1]) did it give?
A: reversed these changes

Q: What about the “Arterial pO2 (reduced by Bleo)” value (Bleo-exposed rats [1]) of the same compound?
A: reversed these changes

Q: What about the “Arterial sO2 (reduced by Bleo)” value (Bleo-exposed rats [1]) of the same compound?
A: reversed these changes

Q: What about the “Ratio of WLW to BW” value (Bleo-exposed rats [2]; [6]) of the same compound?
A: significantly reduced

Q: And the “Wet lung weight (WLW)” value (Bleo-exposed rats [2]; [6])?
A: significantly reduced

Q: What about the Body weight (Bleo-exposed rats [2]; stellate ganglia administration of RTX in rats with lung injury) of the same compound?
A: improved

Q: And the “Plasma extravasation (Evans Blue areas / concentration in lung)” value (Bleo-exposed rats [3]; epidural RTX T1-T4 (6 μg/ml, 10 μl/per ganglia) at day 3 after Bleo 2.5 mg/kg intra-tracheal, vs. Bleo)?
A: reduced

Q: And the “Plasma extravasation (Evans Blue dye in the lung)” value (Bleo-exposed rats [3]; intra-stellate RTX (50μg/ml, 5 μl/per side) at day 3 after Bleo, vs. Bleo+Veh)?
A: marked reduction; also recorded: reduced

Q: What about the “Plasma cytokine levels in response to Bleo” value (Bleo-exposed rats [4]) of the same compound?
A: reduced

Q: And the “Lung tissue IFNγ level” value (Bleo-exposed rats [5]; [7])?
A: reduced

Q: And the “Lung tissue IL-1β level” value (Bleo-exposed rats [5]; [7])?
A: reduced

Q: And the “Lung tissue IL-6 level” value (Bleo-exposed rats [5]; [7])?
A: reduced

Q: What about the “Lung tissue IL-1β level” value (Bleo-exposed rats [5]; [8]) of the same compound?
A: significantly reduced

Q: What about the “Lung tissue IL-6 level” value (Bleo-exposed rats [5]; [8]) of the same compound?
A: significantly reduced
